Where “and” joins values, the source holds several entries; their conditions need not be identical. Identical values can stand only once. Entries after “also recorded” stand apart in the source; their conditions may differ. Like-named read-outs stand apart in the source and are kept apart here.
Tests used:
[1] = Physicochemical input parameters
[2] = target: T1, OAT3 (Homo sapiens, UniProt Q8TCC7); experiment: PBPK DDI simulations of baricitinib with OAT3 inhibitors
T1 sequence (Q8TCC7 1-542): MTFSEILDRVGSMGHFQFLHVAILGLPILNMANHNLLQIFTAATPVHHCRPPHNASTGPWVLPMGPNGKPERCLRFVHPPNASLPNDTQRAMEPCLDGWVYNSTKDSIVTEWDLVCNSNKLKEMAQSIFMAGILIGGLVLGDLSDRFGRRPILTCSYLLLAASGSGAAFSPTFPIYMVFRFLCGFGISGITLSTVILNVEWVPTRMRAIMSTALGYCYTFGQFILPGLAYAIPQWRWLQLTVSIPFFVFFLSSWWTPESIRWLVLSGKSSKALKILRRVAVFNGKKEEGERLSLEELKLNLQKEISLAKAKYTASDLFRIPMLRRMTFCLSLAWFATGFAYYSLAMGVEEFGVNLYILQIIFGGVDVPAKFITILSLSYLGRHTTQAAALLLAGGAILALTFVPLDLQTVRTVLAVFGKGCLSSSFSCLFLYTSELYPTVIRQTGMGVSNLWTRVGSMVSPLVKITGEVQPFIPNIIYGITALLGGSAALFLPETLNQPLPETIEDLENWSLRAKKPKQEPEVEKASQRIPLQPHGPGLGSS

[3] = target: T2, OAT1 (Homo sapiens, UniProt Q4U2R8); experiment: Baricitinib substrate study in OAT1-transfected HEK-PEAK cells; format: in vitro ADME
T2 sequence (Q4U2R8 1-563): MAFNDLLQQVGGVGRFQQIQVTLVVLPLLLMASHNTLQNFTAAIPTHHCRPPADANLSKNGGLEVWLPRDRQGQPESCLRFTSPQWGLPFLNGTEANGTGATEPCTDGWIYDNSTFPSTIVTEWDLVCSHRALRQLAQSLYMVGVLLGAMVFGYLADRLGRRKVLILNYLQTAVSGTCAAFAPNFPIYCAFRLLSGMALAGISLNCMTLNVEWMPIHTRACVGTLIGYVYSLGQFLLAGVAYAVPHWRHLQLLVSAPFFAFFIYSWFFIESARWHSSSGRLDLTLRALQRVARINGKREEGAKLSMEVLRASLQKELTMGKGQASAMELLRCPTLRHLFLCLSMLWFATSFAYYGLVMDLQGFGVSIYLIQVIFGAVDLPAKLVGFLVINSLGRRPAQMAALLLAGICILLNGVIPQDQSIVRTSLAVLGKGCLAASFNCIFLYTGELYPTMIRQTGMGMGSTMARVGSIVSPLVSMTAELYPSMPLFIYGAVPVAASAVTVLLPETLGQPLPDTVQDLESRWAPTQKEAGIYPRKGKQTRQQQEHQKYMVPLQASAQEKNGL

[4] = Clinical baricitinib-probenecid DDI study in healthy subjects; format: in vivo, human
[5] = Human mass balance study of baricitinib; format: in vivo
[6] = target: MATE2-K (Homo sapiens, UniProt Q86VL8); experiment: Uptake of baricitinib into MATE2-K-transfected HEK cells; format: in vitro ADME
Chain of MATE2-K (Q86VL8 1-566 isoform Q86VL8-3): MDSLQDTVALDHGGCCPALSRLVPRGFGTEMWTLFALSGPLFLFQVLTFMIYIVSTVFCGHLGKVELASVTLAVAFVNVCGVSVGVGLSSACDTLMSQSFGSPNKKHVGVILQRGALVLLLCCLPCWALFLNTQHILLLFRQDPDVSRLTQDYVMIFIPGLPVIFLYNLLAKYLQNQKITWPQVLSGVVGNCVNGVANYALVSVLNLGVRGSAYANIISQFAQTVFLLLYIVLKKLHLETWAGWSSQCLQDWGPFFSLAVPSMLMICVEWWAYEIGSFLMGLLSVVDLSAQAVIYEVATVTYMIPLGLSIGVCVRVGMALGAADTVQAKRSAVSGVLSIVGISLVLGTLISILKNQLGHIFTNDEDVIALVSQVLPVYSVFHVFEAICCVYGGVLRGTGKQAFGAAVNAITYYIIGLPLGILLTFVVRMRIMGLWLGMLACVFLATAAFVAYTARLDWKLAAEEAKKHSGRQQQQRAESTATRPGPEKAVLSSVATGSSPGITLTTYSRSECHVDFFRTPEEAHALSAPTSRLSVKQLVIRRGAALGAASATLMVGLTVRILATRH

[7] = target: T3, OATP1B1 (Homo sapiens, UniProt Q9Y6L6); experiment: Baricitinib substrate study in OATP1B1-transfected HEK-PEAK cells; format: in vitro ADME
T3 sequence (Q9Y6L6 1-691): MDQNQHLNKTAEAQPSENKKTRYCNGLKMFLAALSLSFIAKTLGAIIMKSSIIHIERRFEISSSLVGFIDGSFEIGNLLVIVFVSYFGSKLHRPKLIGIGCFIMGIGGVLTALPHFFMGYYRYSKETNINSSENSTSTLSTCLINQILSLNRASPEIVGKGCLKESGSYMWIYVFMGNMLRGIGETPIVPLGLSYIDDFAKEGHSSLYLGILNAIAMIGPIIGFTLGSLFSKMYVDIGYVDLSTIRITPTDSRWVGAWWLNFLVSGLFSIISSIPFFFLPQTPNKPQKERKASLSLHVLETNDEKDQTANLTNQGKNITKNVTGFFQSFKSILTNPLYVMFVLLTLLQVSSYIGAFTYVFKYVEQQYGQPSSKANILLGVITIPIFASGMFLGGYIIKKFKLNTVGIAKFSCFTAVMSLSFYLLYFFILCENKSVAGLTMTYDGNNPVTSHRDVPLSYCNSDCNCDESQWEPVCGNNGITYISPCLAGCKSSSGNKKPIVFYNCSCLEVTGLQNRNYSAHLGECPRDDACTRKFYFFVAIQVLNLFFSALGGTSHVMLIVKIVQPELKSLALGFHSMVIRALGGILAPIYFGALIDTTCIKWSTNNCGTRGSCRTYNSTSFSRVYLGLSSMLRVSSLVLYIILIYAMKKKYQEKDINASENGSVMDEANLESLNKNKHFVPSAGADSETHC

[8] = target: T4, MATE1 (Homo sapiens, UniProt Q96FL8); experiment: Baricitinib substrate study in MATE1-transfected HEK cells; format: in vitro ADME
T4 sequence (Q96FL8 1-570): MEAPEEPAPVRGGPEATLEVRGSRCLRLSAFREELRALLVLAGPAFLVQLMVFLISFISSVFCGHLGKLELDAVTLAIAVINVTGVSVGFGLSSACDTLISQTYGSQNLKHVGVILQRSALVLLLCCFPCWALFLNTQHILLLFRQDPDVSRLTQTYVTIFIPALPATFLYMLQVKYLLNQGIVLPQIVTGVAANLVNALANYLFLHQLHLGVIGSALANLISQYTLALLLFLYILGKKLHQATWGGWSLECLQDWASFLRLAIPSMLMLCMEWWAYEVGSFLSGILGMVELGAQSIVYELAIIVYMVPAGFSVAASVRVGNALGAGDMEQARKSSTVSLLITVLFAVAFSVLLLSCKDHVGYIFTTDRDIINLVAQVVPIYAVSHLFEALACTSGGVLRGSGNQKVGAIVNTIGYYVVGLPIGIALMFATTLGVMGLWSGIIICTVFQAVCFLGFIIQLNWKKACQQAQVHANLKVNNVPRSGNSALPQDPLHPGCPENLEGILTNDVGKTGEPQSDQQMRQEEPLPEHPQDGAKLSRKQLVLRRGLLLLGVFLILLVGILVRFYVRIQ

[9] = observed, listed as baricitinib

For `CCS(=O)(=O)N1CC(CC#N)(n2cc(-c3ncnc4[nH]ccc34)cn2)C1` [Baricitinib], the pKa [1] was 4, the “Observed/Predicted AUC ratio +/- probenecid” value [2] was 1.0 and the “Observed/Predicted Cmax ratio +/- probenecid” value [2] was 0.9. The OAT1 substrate [3] was “not a substrate”, the “Ae(0‐48), arithmetic mean (SD)” value ([4]; 4 mg baricitinib + probenecid) was 1.57 (0.191) mg and the “CL/F, geometric mean (CV)” value ([4]; 4 mg baricitinib + probenecid) was 8.33 (14) L/h. The “Ae(0‐48), arithmetic mean (SD)” value ([4]; 4 mg baricitinib only) was 2.60 (0.399) mg, the “CL/F, geometric mean (CV)” value ([4]; 4 mg baricitinib only) was 16.9 (22) L/h and the tolerability ([4]; healthy subjects, all drug-related treatment-emergent AEs mild) was “well tolerated”. For the same molecule, the “increase of half-life in the presence of probenecid” value ([4]; human, in vivo) was 63%, the AUC ([4]; human, plasma, oral, 4 mg) was 236 ng·h/mL and the Cmax ([4]; human, plasma, oral, 4 mg) was 36.2 ng/mL. It also gave a Tmax ([4]; human, plasma, oral, 4 mg) of 1 h, a half-life ([4]; human, plasma, oral, 4 mg) of 7.28 h and a CL renal ([4]; human, urine and plasma, oral, 4 mg) of 183 mL/min. The “AUC(0‐∞) ratio of geometric LS means, baricitinib + probenecid : baricitinib only (90% CI)” value ([4]; observed) was 2.03 (1.91, 2.16) and 2.03(1.91‐2.16), the “CLr ratio of geometric LS means, baricitinib + probenecid : baricitinib only (90% CI)” value ([4]; observed) was 0.313 (0.289, 0.339) and the “Cmax ratio of geometric LS means, baricitinib + probenecid : baricitinib only (90% CI)” value ([4]; observed) was 1.03 (0.940, 1.13). The “AUC(0‐∞) ratio of geometric LS means, baricitinib + probenecid : baricitinib only (90% CI)” value [4, 9] was “twofold; also recorded: doubled”, the “Cmax ratio of geometric LS means, baricitinib + probenecid : baricitinib only (90% CI)” value [4, 9] was 1.03 and the “Fa (fraction absorbed)” value ([5]; calculated from human mass balance study) was 0.8. For the same molecule, the blood plasma ratio ([5]; human, blood and plasma, oral) was 1.26, the “dose found as parent compound in feces” value ([5]; in vivo) was 20 % of the dose and the MATE2-K substrate [6] was “substrate of MATE2‐K”. The “MATE2‐K Vmax” value [6] was 1315 ± 129 pmol/min/mg protein, the “Uptake into MATE2-K cells relative to control cells” value ([6]; 0.5 min) was “approximately three times greater” and the “MATE2‐K Vmax” value ([6]; PBPK input) was 657.5 pmol/min/10^6 cells. The OATP1B1 substrate [7] was “not a substrate” and the MATE1 substrate [8] was “not a substrate”.

Source: PMC6402191 (Clinical and Translational Science, 2017)
